Where a name gives a salt, the structure may show the parent alone. Read-outs that look alike come from different tables or passages of the source. *1 amine or outer side, *2 acyl side, *3 side chain or, on linkers, in order; H or OH if unused. Where a SMILES comes first, the peptide text is derived from it. [ ]: non-standard residue; d: D form. X13 = CC[C@H](C)[C@H](NC(=S)[C@@H](Cc1ccccc1)N[*:1])C(=O)[*:2]; X11 = CC(C)(C)OC(=O)CSC1=NN([*:1])[C@H](C(=O)[*:2])CC1; X2 = O=C([C@@H]1[C@@H](O)[C@@H](O)C=NN1[*:1])[*:2]; X8 = O=C([C@@H]1CC(N2CCCC2)C=NN1[*:1])[*:2]; Piz(1,6-dehydro) = O=C(O)[C@@H]1CCC=NN1; dPiz(1,6-dehydro) = O=C(O)[C@H]1CCC=NN1; X1 = O=C([C@H]1CCCNN1[*:1])[*:2]; dNMeF = CN[C@H](Cc1ccccc1)C(=O)O
Key:
[1] = molecular target: T1, uterine OT receptors (Rattus norvegicus, UniProt P70536); assay: [3H]OT radioligand binding to uterine OT receptors, crude membrane preparation; conditions: uteri of DES-treated rats; 1 nM [3H]OT; 60 min, 22° C.; inhibits specific binding by 50%; read-out: Receptor Binding Results IC50 (nM) [3H]OT
T1 construct: from tissue; host or cells: uterus of DES-treated rats, crude membranes
T1 sequence (P70536 1-388): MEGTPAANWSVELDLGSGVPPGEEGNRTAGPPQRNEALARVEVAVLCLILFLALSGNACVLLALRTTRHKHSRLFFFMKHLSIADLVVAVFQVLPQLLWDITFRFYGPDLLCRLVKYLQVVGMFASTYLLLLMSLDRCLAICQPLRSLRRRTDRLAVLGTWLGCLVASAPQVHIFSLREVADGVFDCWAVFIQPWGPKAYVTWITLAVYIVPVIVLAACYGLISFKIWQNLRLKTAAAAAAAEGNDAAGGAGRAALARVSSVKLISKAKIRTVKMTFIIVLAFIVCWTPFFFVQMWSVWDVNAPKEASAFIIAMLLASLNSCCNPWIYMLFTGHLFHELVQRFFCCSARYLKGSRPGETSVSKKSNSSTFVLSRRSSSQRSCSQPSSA
Description: The high affinity binding of [^3 H]OT ([tyrosyl, 3,5-[^3 H]OT; 30-60 Ci/mmol; New England Nuclear Boston, Mass.) to uterine OT receptors was based on an assay* using a crude membrane preparation of uteri taken from diethylstilbestrol dipropionate (DES)-treated (0.3 mg/kg, ip; 18-24) rats. Competition studies were conducted at equilibrium (60 min; 22° C.) using 1 nM [^3 H]OT in the following assay buffer: 50 mM Tris-HCl, 5 mM MgCl2, and 0.1% BSA, pH 7.4. Nonspecific binding (10% of the total binding) was determined using 1 μM unlabeled OT and the binding reaction was terminated by filtration through glass fiber filters using a cell harvester (model 7019, Skatron, Inc., Sterling, Va.).
*Fuchs, A-R; Fuchs, F; Soloff, MS. 1985 J. Clin. Endocrinol. Metab. 60:37.

[2] = molecular target: AVP-V1 sites (Rattus norvegicus, UniProt P30560); assay: [3H]AVP radioligand binding to male rat liver crude membrane preparation (AVP-V1 sites)
Description: (§1) Nonspecific binding (5-10% of the total binding) was determined using 10 μM unlabeled AVP, and the binding reaction was terminated by filtration as described above for the [^3 H]OT binding assay.
(§2) +Butlen, D; Guillon, G; Rajerison, RM; Jard, S; Sawyer, WH; Manning, M. 1978 Mol Pharmacol 14:1006.

[3] = molecular target: AVP-V2 sites (Rattus norvegicus, UniProt Q00788); assay: [3H]AVP radioligand binding to rat kidney medulla crude membrane preparation (AVP-V2 sites); conditions: rat kidney medulla membranes; 2 nM [3H]AVP; 30 min at 30° C.; read-out: Receptor Binding Results IC50 (nM) [^3 H]-AVP-V2
Description: as §1, §2

[4] = male rat liver membranes, 1 nM [3H]AVP, 30 min at 30° C., read-out: Receptor Binding Results IC50 (nM) [^3 H]-AVP-V1

AVP-V2 sites, sequence (Q00788 whole entry): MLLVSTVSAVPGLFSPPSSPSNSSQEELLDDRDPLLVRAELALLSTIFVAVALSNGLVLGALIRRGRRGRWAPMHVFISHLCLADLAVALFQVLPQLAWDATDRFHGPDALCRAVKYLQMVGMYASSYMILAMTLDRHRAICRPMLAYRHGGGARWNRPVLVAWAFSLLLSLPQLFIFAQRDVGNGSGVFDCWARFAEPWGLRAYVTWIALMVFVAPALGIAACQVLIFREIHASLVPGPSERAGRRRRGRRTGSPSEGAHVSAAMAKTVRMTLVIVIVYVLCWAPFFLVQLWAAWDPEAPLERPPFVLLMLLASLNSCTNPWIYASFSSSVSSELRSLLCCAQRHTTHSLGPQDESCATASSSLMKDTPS
AVP-V1 sites, sequence (P30560 whole entry): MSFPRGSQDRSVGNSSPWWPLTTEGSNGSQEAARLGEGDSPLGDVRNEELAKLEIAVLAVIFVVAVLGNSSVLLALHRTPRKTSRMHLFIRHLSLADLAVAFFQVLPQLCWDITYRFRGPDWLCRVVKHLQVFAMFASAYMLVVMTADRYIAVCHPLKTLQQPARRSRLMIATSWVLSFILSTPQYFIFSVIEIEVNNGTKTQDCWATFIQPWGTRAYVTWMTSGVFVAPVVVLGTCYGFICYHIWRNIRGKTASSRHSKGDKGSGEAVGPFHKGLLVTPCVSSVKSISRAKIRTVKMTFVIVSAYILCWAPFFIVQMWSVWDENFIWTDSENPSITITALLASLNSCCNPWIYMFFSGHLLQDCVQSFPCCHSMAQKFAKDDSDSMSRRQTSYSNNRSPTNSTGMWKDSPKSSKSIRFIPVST

Compound	IC50 [1]	IC50 [2, 4]	IC50 [3]	IC50 [2]
CC[C@H](C)[C@@H]1NC(=O)[C@@H](Cc2ccccc2)NC(=O)[C@@H]2CCCN2C(=O)[C@@H](Cc2ccccc2)N(C)C(=O)[C@@H]2[C@@H](O)[C@@H](O)C=NN2C(=O)[C@H]2CCC=NN2C1=O [Example 13, cyclo-[D-Phenylalanyl-L-isoleucyl-D-2,3,4,5-tetrahydro-3-pyridazinecarbonyl-(3α,4β,5β)-4,5-dihydroxy-L-2,3,4,5-tetrahydro-3-pyridazinecarbonyl-N-methyl-D-phenylalanyl-L-prolyl]] (cyclo(I[dPiz(1,6-dehydro)][X2][dNMeF]P[dF]))	785 nM	10000 nM	> 10000 nM	–
CC[C@H](C)[C@@H]1NC[C@@H](Cc2ccccc2)NC(=O)[C@@H]2CCCN2C(=O)[C@@H](Cc2ccccc2)N(C)C(=O)[C@@H]2CCC=NN2C(=O)[C@H]2CCC=NN2C1=O [Example 7, cyclo-[N-(2-Amino-3-phenylpropyl)-L-isoleucyl-D-2,3,4,5-tetrahydro-3-pyridazinecarbonyl-L-2,3,4,5-tetrahydro-3-pyridazinecarbonyl-N-methyl-D-phenylalanyl-L-prolyl]]	30000 nM	> 30000 nM	> 30000 nM	–
CC[C@H](C)[C@@H]1NC(=O)[C@@H](Cc2ccccc2)NC(=O)[C@@H]2CCCN2C(=O)[C@@H](Cc2ccccc2)N(C)C(=O)[C@@H]2CCC(SCC(=O)OC(C)(C)C)=NN2C(=O)[C@H]2CCC=NN2C1=O [Example 9, cyclo-[D-Phenylalanyl-L-isoleucyl-D-2,3,4,5-tetrahydro-3-pyridazinecarbonyl-6-[[2-(1,1-dimethylethoxy)-2-oxoethyl]thio]-L-2,3,4,5-tetrahydro-3-pyridazine-carbonyl-N-methyl-D-phenylalanyl-L-prolyl]] (cyclo(I[dPiz(1,6-dehydro)][X11][dNMeF]P[dF]))	564 nM	–	10000 nM	10000 nM

The remaining compounds from weak to strong by IC50 [1], led by results:

IC50 [1]	IC50 [2, 4]	IC50 [3]	Compound	IC50 [2]
600 nM	8800 nM	11000 nM	CC[C@H](C)[C@@H]1NC(=O)[C@@H](Cc2ccccc2)NC(=O)[C@@H]2CCCN2C(=O)[C@@H](Cc2ccccc2)N(C)C(=O)[C@@H]2CC(N3CCCC3)C=NN2C(=O)[C@H]2CCC=NN2C1=O (stereo partly drawn) [Example 15, cyclo-[D-Phenylalanyl-L-isoleucyl-D-2,3,4,5-tetrahydro-3-pyridazinecarbonyl-5-(1-pyrolidinyl)-L-2,3,4,5-tetrahydro-3-pyridazinecarbonyl-N-methyl-D-phenylalanyl-L-prolyl] trifluoroacetate] (cyclo(I[dPiz(1,6-dehydro)][X8][dNMeF]P[dF]))	–
290 nM	10000 nM	> 10000 nM	CC[C@H](C)[C@@H]1NC(=O)[C@@H](Cc2ccccc2)NC(=O)[C@@H]2CCCN2C(=O)[C@@H](Cc2ccccc2)N(C)C(=O)[C@@H]2[C@@H](O)[C@@H](O)C=NN2C(=O)[C@H]2CCCNN2C1=O [Example 14, cyclo-[D-Phenylalanyl-L-isoleucyl-D-hexahydro-3-pyridazinecarbonyl-(3α,4β,5β)-4,5-dihydroxy-L-2,3,4,5-tetrahydro-3-pyridazinecarbonyl-N-methyl-D-phenylalanyl-L-prolyl]trifluoroacetate salt.] (cyclo(I[X1][X2][dNMeF]P[dF]))	–
1 nM	300 nM	270 nM	CC[C@H](C)[C@@H]1NC(=S)[C@@H](Cc2ccccc2)NC(=O)[C@@H]2CCCN2C(=O)[C@@H](Cc2ccccc2)N(C)C(=O)[C@@H]2CCC=NN2C(=O)[C@H]2CCC=NN2C1=O [Example 10, cyclo-[D-Thiophenylalanyl-L-isoleucyl-D-2,3,4,5-tetrahydro-3-pyridazinecarbonyl-L-2,3,4,5-tetrahydro-3-pyridazinecarbonyl-N-methyl-D-phenylalanyl-L-prolyl]] (cyclo(P[X13][dPiz(1,6-dehydro)][Piz(1,6-dehydro)][dNMeF]))	–
